In publication PMC11992225, “Antibacterial compounds against non-growing and intracellular bacteria” (npj Antimicrobials and Resistance, 2025):
Values after ≈ are worked out from the molar mass of the structure shown. Read-outs that look alike come from different tables or passages of the source.

Key:
S. flexneri 5a M90T = experiment: MIC in tryptic soy broth, S. flexneri; assay type: cell-based, Shigella flexneri; details: Shigella flexneri, 5AM90T, read-out: MIC (μM) TSB
Outline: (§1)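 Broth microdilution was used throughout. UPEC, P. aeruginosa and S. aureus were tested in CA-MHB buffered with 40 mM HEPES (pH 7.4); UPEC was additionally tested in LPM with 30 mM MES (pH 5.5). S. flexneri was grown in TSB. All determinations were run in triplicate.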

P. aeruginosa DSM1117 = experiment: MIC, standard microdilution assay, growing P. aeruginosa; assay type: cell-based, Pseudomonas aeruginosa; details: P. aeruginosa; for MIC: Pseudomonas aeruginosa, DSM1117
Outline: as §1

[1] = tested on: non-growing P. aeruginosa DSM1117; experiment: Dilution-regrowth assay (OD600, start-growth-time) on stationary-phase P. aeruginosa; assay type: cell-based, Pseudomonas aeruginosa; details: P. aeruginosa; for Regrowth, OD600 at 6h or 8h after dilution into drug-free medium: average; for EC50: Pseudomonas aeruginosa, DSM1117, regrowth delay of non-growing bacteria, 1:4 CA-MHB pH 7.4, 24 h treatment, OD600 8 h after dilution, read-out: EC50; for Regrowth: OD600 after dilution into drug-free medium (mean): OD600 at 6h or 8h
Procedure: To determine the spectrum of activity of the compounds that were effective against non-growing UPEC, we further assessed their efficacy against the well-characterized Gram-negative and Gram-positive reference strains P. aeruginosa DSM1117 and S. aureus DSM2569, respectively. The cultures were grown and treated for 24 h in 1:4 CA-MHB (pH 7.4). […].
For better characterization of the compounds causing the strongest regrowth delay, we performed the regrowth step of the dilution-regrowth experiments on a plate reader, measuring the OD600 at 20-min intervals for over 20 h instead of using an endpoint measurement. This approach allowed us to capture the time when cultures reached a threshold optical density (start-growth-time, SGT[15]).
Overnight cultures of UPEC, P. aeruginosa and S. aureus were grown in test tubes containing 3 ml of LB broth (~16 h), then diluted 1:100 into either 1:4 diluted CA-MHB medium buffered with 40 mM HEPES (pH 7.4) or, in case of UPEC, into LPM medium[25] supplemented with 49 µM MgCl2 and buffered with 30 mM MES (pH 5.5). The cultures were incubated for 24 h in non-baffled Erlenmeyer flasks at 37 °C with shaking at 200 rpm.
For P. aeruginosa and S. aureus, dose–response analysis was conducted in 96-well plates with a 200 μl assay volume, following the procedure used for screening assay validation experiments. Aliquots of the 39 compounds active against non-growing UPEC were obtained from SelleckChem and MedChem Express. Stock solutions were prepared and stored according to the manufacturers’ instructions, then diluted in 10% DMSO before use. Cultures were incubated for 24 h in 1:4 diluted CA-MHB medium under the same conditions used for UPEC cultivation. In preliminary experiments, each compound was tested at a concentration of 20 μM in the dilution-regrowth assay with 4 technical replicates. Regrowth was monitored using a microplate reader at 37 °C with continuous shaking, and OD600 was recorded every 20 min. The time at which OD600 exceeded the threshold of 0.12 was recorded as the Start_Growth-Time.
The statistical analysis of all data, as well as EC50 and IC50 determination, was conducted using GraphPad Prism 10.2.3. Statistical significance of the drug effects was assessed using a one-way ANOVA followed by Dunnett’s test, comparing each treatment to the drug-free control. Statistical significance of the differences in chemical characteristics between the hit compounds and the Prestwick library was assessed using a Mann–Whitney test. Statistical significance was set at P ≤ 0.05. A five-parameter logistic equation was used for asymmetric sigmoidal curve fitting and for EC50 and IC50 determination. The Venn diagram in Fig. 1F was prepared using BioVenn web application. Characteristics of the chemical and physical properties of Prestwick library compounds were obtained from Supplementary Table S1 from reference. Characteristics of the hit compounds not included in the Prestwick library were retrieved from the PubChem database.

E. coli CFT073 (UPEC) = experiment: MIC, standard microdilution assay, growing UPEC; assay type: cell-based, Escherichia coli; details: for MIC: Escherichia coli
Outline: as §1

S. aureus DSM2569 = experiment: MIC, standard microdilution assay, growing S. aureus; assay type: cell-based, Staphylococcus aureus; details: Staphylococcus aureus, DSM2569; S. aureus; CA-MHB pH 7.4; read-out: MIC (μM) CA-MHB
Outline: as §1

[2] = 1:4 diluted CA-MHB pH 7.4, read-out: MIC (μM) 1:4 CA-MHB
[3] = CA-MHB pH 7.4, read-out: MIC (μM) CA-MHB
[4] = E. coli, pH 7.4, CA-MHB, read-out: MIC (μM) CA-MHB
[5] = E. coli, LPM pH 5.5, read-out: MIC
[6] = E. coli, pH 7.4, 1:4 diluted CA-MHB, read-out: MIC (μM) 1:4 CA-MHB

| SMILES | MIC (S. flexneri 5a M90T) [µM] | increase of MIC in diluted CA-MHB versus CA-MHB (P. aeruginosa DSM1117) | MIC (P. aeruginosa DSM1117; [2]) [µM] | MIC (P. aeruginosa DSM1117; [3]) [µM] | Regrowth, OD600 at 6h or 8h after dilution into drug-free medium ([1]; concentration 0.1) | Regrowth, OD600 at 6h or 8h after dilution into drug-free medium ([1]; concentration 0.5) | Regrowth, OD600 at 6h or 8h after dilution into drug-free medium ([1]; concentration 2.5) | Regrowth, OD600 at 6h or 8h after dilution into drug-free medium ([1]; concentration 10) | EC50 [1] [µM] | MIC (E. coli CFT073 (UPEC); [4]) [µM] | MIC (S. aureus DSM2569) [µM] | Regrowth: OD600 after dilution into drug-free medium (mean) ([1]; concentration 0.1) | Regrowth: OD600 after dilution into drug-free medium (mean) ([1]; concentration 0.5) | Regrowth: OD600 after dilution into drug-free medium (mean) ([1]; concentration 2.5) | Regrowth: OD600 after dilution into drug-free medium (mean) ([1]; concentration 10) | MIC (E. coli CFT073 (UPEC); [5]) [µM] | MIC (E. coli CFT073 (UPEC); [6]) [µM] | MIC (μM) CA-MHB +PAβN (E. coli CFT073 (UPEC); E. coli, pH 7.4, CA-MHB with 10 μg/ml efflux pump inhibitor PaβN) [µM] | MIC (E. coli CFT073 (UPEC); pH 5.5) [µM] |
| --- | --- | --- | --- | --- | --- | --- | --- | --- | --- | --- | --- | --- | --- | --- | --- | --- | --- | --- | --- |
| N[C@@H]1CCCCN(c2c(F)cc3c(=O)c(C(=O)O)cn(C4CC4)c3c2Cl)C1 [Besifloxacin] | 0.25 (≈ 0.0985 µg/mL) | twofold | 8 (≈ 3.15 µg/mL) | 4 (≈ 1.58 µg/mL) | 0.563 | 0.201 | 0.091 | 0.090 | 0.266 | 0.25 (≈ 0.0985 µg/mL) | 0.25 (≈ 0.0985 µg/mL) | – | – | – | – | – | – | – | – |
| CO[C@H]1/C=C/O[C@@]2(C)Oc3c(C)c(O)c4c(c3C2=O)C2=NC3(CCN(CC(C)C)CC3)NC2=C(NC(=O)/C(C)=C\C=C\[C@H](C)[C@H](O)[C@@H](C)[C@@H](O)[C@@H](C)[C@H](OC(C)=O)[C@@H]1C)C4=O [Rifabutin] | 32 (≈ 27.1 µg/mL) | – | 10 (≈ 8.47 µg/mL) | 40 (≈ 33.9 µg/mL) | – | – | – | – | 0.942 | 8 (≈ 6.78 µg/mL) | 0.025 (≈ 0.0212 µg/mL) | 0.637 | 0.579 | 0.109 | 0.093 | 2 (≈ 1.69 µg/mL) | 0.625 (≈ 0.529 µg/mL) | – | – |
| CC1Sc2c(C(=O)O)c(=O)c3cc(F)c(N4CCNCC4)cc3n21 (stereo not drawn) [Ulifloxacin] | 0.0312 (≈ 0.0109 µg/mL) | – | 0.5 (≈ 0.175 µg/mL) | 0.5 (≈ 0.175 µg/mL) | – | – | – | – | 0.082 | 0.025 (≈ 0.00873 µg/mL) | 1 (≈ 0.349 µg/mL) | – | – | – | – | 0.125 (≈ 0.0437 µg/mL) | – | – | – |
| NC1CCN(c2nc3c(cc2F)c(=O)c(C(=O)O)cn3-c2ccc(F)cc2F)C1 (stereo not drawn) [Tosufloxacin] | 0.0156 (≈ 0.00632 µg/mL) | – | – | 1 (≈ 0.404 µg/mL) | – | – | – | – | 0.237 | 0.05 (≈ 0.0202 µg/mL) | 0.25 (≈ 0.101 µg/mL) | – | – | – | – | 0.125 (≈ 0.0505 µg/mL) | – | – | – |
| C=C[C@]1(C)C[C@@H](OC(=O)CSC(C)(C)CNC(=O)[C@H](N)C(C)C)[C@]2(C)[C@H](C)CC[C@]3(CCC(=O)[C@H]32)[C@@H](C)[C@@H]1O [Valnemulin] | 16 (≈ 9.04 µg/mL) | – | > 160 | > 160 | – | – | – | – | 0.324 | 20 (≈ 11.3 µg/mL) | 0.125 (≈ 0.0706 µg/mL) | – | – | – | – | – | 10 (≈ 5.65 µg/mL) | 10 (≈ 5.65 µg/mL) | – |
| CN1C[C@@H]2C[C@H]1CN2c1cc2c(cc1F)c(=O)c(C(=O)O)cn2C1CC1 [Danofloxacin] | 0.0625 (≈ 0.0223 µg/mL) | – | 4 (≈ 1.43 µg/mL) | 4 (≈ 1.43 µg/mL) | – | – | – | – | 0.604 | 0.125 (≈ 0.0447 µg/mL) | 0.5 (≈ 0.179 µg/mL) | – | – | – | – | – | – | – | – |
| O=C(O)c1cn(-c2ccc(F)cc2)c2cc(N3CCNCC3)c(F)cc2c1=O [Sarafloxacin] | 0.0625 (≈ 0.0241 µg/mL) | – | 2 (≈ 0.771 µg/mL) | 2 (≈ 0.771 µg/mL) | – | – | – | – | 0.216 | 0.05 (≈ 0.0193 µg/mL) | 1 (≈ 0.385 µg/mL) | – | – | – | – | 0.5 (≈ 0.193 µg/mL) | – | – | – |
| CN1CCN(c2cc3c(cc2F)c(=O)c(C(=O)O)cn3-c2ccc(F)cc2)CC1 [Difloxacin] | 0.25 (≈ 0.0998 µg/mL) | – | 8 (≈ 3.2 µg/mL) | 8 (≈ 3.2 µg/mL) | – | – | – | – | 2.36 | 0.25 (≈ 0.0998 µg/mL) | 1 (≈ 0.399 µg/mL) | – | – | – | – | 0.0625 (≈ 0.025 µg/mL) | – | – | – |
| N[C@@H]1[C@H]2CN(c3nc4c(cc3F)c(=O)c(C(=O)O)cn4-c3ccc(F)cc3F)C[C@@H]12 [Trovafloxacin] | 0.0625 (≈ 0.026 µg/mL) | four | 8 (≈ 3.33 µg/mL) | 2 (≈ 0.833 µg/mL) | – | – | – | – | 1.02 | 0.4 (≈ 0.167 µg/mL) | 0.125 (≈ 0.052 µg/mL) | – | – | – | – | – | – | – | 0.0625 (≈ 0.026 µg/mL) |
